In patent US20250277793A1, “COMPOSITIONS AND METHODS FOR CANCER DIAGNOSIS” (AOA Dx, priority 2020, published 2025):
Several values for one entry are separate records, joined by “and”; a condition that tells them apart may be missing. Equal values may be shown once.

How the values were obtained:
[1] = system: serum from mice vaccinated with PAMAM-GD2; experiment: Direct binding ELISA, GD2 versions with vaccinated mouse sera; settings: antigen 10 ng/well, serum 1:75 dilution; for OD(450 nm): individual replicate wells; for OD(450 nm) Average: mean of 3
Protocol: (§1) Native gangliosides (GD2 or GD3, Control), Tria-tri-GD2, Tria-tri-GD3, PAMAM-GD2, PAMAM-GD3, or the monomeric precursors AP-GD2 or AP-GD3 were immobilized onto polystyrene Corning Strip Well 96-well plates (10 ng/well). After bocking all wells with albumin (BSA), the wells were reacted for binding by anti-GD2 or […] (7 nM final) or with serum from mice vaccinated with PAMAM-GD2 (1:75 dilution). Secondary antibody used was horseradish peroxidase (HRP)-conjugated anti-mouse IgG (Sigma). BG=background control.

[2] = system: anti-GD2 mAbs; experiment: Direct binding ELISA, GD2 versions with anti-GD2 antibody; parameters: species or system mouse; settings: antigen immobilized 10 ng/well, mAb 7 nM final; for OD(450 nm): individual replicate wells; for OD(450 nm) Average: mean of 3
Protocol: as §1

[3] = Water solubility of intermediate carbohydrates; type: physicochemical; settings: read-out: water soluble
Protocol: p-Aminophenylether-b-D-lactopyranoside (AP-Lac, from Toronto Research Chemicals) was used to enzymatically synthesize water soluble (>20 mg/ml) AP-GD2 and AP-GD3 intermediate carbohydrates. The synthesis of AP-GD2 included […] of AP-GD3 (4 mM), […] of UDP-GalNAc (5.4 mM), and 10.5 units of CgtA (construct CJL-30), 10 mM MnCl2 and 24 mM Hepes pH 7.0 in a final volume of 55 ml. The reaction mixture was incubated at 37° C. for 6.5 hr. Insoluble material was removed by centrifugation at 27,000 g for 15 min and the enzyme was removed by ultrafiltration using a 10 kDa membrane cut off. The filtrate was loaded on SepPak C18 5 g column (waters Corp) and the product was eluted with water while unidentified contaminants remained in the column. The product was further purified by anion exchange chromatography on HiTrapQ (GE Healthcare) using a gradient of 0-0.3 M NH4HCO3 and by size exclusion chromatography on a Superdex Peptide 10/300 GL column (GE Healthcare). The measured molecular weights of AP-GD2 (1,218 g/mol) and AP-GD3 (927 g/mol) correspond to expected values. Structures were verified by 1D and 2D NMR spectroscopy and mass spectrometry (EI-MS). […]

[4] = system: anti-GD3 mAbs; experiment: Direct binding ELISA, GD3 versions with anti-GD3 antibody; parameters: species or system mouse; settings: antigen immobilized 10 ng/well, mAb 7 nM final; for OD(450 nm): individual replicate wells; for OD(450 nm) Average: mean of 3
Protocol: as §1

[5] = system: antisera raised against PAMAM-GD3; experiment: Direct binding ELISA, GD3 versions with vaccinated mouse sera; parameters: species or system mice; settings: antigen 10 ng/well, serum 1:75 dilution; for OD(450 nm): individual replicate wells; for OD(450 nm) Average: mean of 3

| SMILES | OD(450 nm) [1] | OD(450 nm) Average [1] | OD(450 nm) [2] | OD(450 nm) Average [2] | solubility [3] | OD(450 nm) [4] | OD(450 nm) Average [4] | OD(450 nm) [5] | OD(450 nm) Average [5] | OD(450 nm) ([2]; listed as Control) |
| --- | --- | --- | --- | --- | --- | --- | --- | --- | --- | --- |
| CC(=O)NC1C(OC2C(CO)OC(OC3C(CO)OC(Oc4ccc(N)cc4)C(O)C3O)C(O)C2OC2(C(=O)O)CC(O)C(NC(C)=O)C([C@H](O)C(CO)OC3(C(=O)O)CC(O)C(NC(C)=O)C([C@H](O)[C@H](O)CO)O3)O2)OC(CO)C(O)C1O (stereo partly drawn) [AP-GD2, p-amino phenyl ether-GD2] | 0.694 and 0.587 and 0.635 | 0.6387 | 0.483 and 0.558 and 0.568 | 0.5363 | > 20 mg/mL | – | – | – | – | – |
| CC(=O)NC1C(O)CC(OC2C(O)C(CO)OC(OC3C(CO)OC(Oc4ccc(N)cc4)C(O)C3O)C2O)(C(=O)O)OC1[C@H](O)C(CO)OC1(C(=O)O)CC(O)C(NC(C)=O)C([C@H](O)[C@H](O)CO)O1 (stereo partly drawn) [AP-GD3, p-amino phenyl ether-GD3] | – | – | – | – | > 20 mg/mL | 0.483 and 0.558 and 0.568 | 0.5363 | 0.483 and 0.558 and 0.568 | 0.5363 | – |
| CC/C=C/C(O)C(CO[C@@H]1OC(CO)[C@@H](O[C@@H]2OC(CO)[C@H](O[C@@H]3OC(CO)[C@H](O)C(O)C3NC(C)=O)C(O[C@]3(C(=O)O)CC(O)[C@@H](NC(C)=O)C([C@H](O)[C@@H](CO)O[C@]4(C(=O)O)CC(O)[C@@H](NC(C)=O)C([C@H](O)[C@H](O)CO)O4)O3)C2O)C(O)C1O)NC(=O)CC (stereo partly drawn) [GD2, reference compound] | 1.319 and 1.23 and 1.128 | 1.226 | – | 1.105 | – | – | – | – | – | 1.174 and 1.069 and 1.072 |
| CC/C=C/C(O)C(CO[C@@H]1OC(CO)[C@@H](O[C@@H]2OC(CO)[C@H](O)C(O[C@]3(C(=O)O)CC(O)[C@@H](NC(C)=O)C([C@H](O)[C@@H](CO)O[C@]4(C(=O)O)CC(O)[C@@H](NC(C)=O)C([C@H](O)[C@H](O)CO)O4)O3)C2O)C(O)C1O)NC(=O)CC (stereo partly drawn) [GD3, reference compound] | – | – | – | – | – | 0.602 and 0.465 and 0.493 | 0.52 | 0.646 and 0.534 and 0.555 | 0.5783 | – |
